Assays:
[1] = target: T1, Bromodomain-containing protein 4 (Homo sapiens, UniProt O60885); assay: Displacement of biotinylated ligand from recombinant His-tagged BRD4 bromodomain-1 (unknown origin) measured after 10 mins by TR-FRET assay
[2] = target: T2, CREB-binding protein/Histone acetyltransferase p300 (Homo sapiens, UniProt Q09472+Q92793); assay: Displacement of biotinylated ligand from recombinant His-tagged CBP/EP300 (unknown origin) measured after 10 mins by TR-FRET assay; format: protein assay
[3] = Drug metabolism in human liver microsomes assessed as cleavage of cyclopropylmethyl moiety at 10 uM up to 1 hr in presence of NADPH by LC-MS analysis; format: ADME
[4] = Apparent permeability of the compound across apical side to basolateral side in MDCK cells at 10 uM measured after 180 mins by LC-MS/MS analysis; format: ADME, cell-based, Canis lupus familiaris; settings: dog
[5] = Drug metabolism in mouse liver microsomes assessed as phenyl ring oxidation at 10 uM up to 1 hr in presence of NADPH by LC-MS analysis; format: ADME
[6] = Drug metabolism in human liver microsomes assessed as phenyl ring oxidation at 10 uM up to 1 hr in presence of NADPH by LC-MS analysis; format: ADME
[7] = Drug metabolism in mouse liver microsomes assessed as cleavage of cyclopropylmethyl moiety at 10 uM up to 1 hr in presence of NADPH by LC-MS analysis; format: ADME
[8] = target: T2, CREB-binding protein/Histone acetyltransferase p300; assay: Inhibition of Halo-tagged histone H3.3 binding to CBP/EP300 (unknown origin) expressed in HEK293 cells measured after overnight incubation by luciferase reporter gene based BRET assay; format: cell-based
[9] = Clearance in mouse; format: ADME, organism-based; settings: in vivo
[10] = Drug metabolism in CD-1 mouse hepatocytes assessed as glucuronidation of compound at 1 uM up to 180 mins by LC-MS/MS analysis; format: ADME, cell-based, Hepatocyte; settings: 3 h
[11] = Oral bioavailability in mouse; format: ADME, organism-based; settings: in vivo
CREB-binding protein [12] = target: T3, CREB-binding protein (Homo sapiens, UniProt Q92793); assay: Inhibition of Halo-tagged histone H3.3 binding to NanoLuc luciferase conjugated CBP (unknown origin) expressed in HEK293 cells after overnight incubation by BRET assay; format: cell-based
T3 sequence (Q92793 whole entry): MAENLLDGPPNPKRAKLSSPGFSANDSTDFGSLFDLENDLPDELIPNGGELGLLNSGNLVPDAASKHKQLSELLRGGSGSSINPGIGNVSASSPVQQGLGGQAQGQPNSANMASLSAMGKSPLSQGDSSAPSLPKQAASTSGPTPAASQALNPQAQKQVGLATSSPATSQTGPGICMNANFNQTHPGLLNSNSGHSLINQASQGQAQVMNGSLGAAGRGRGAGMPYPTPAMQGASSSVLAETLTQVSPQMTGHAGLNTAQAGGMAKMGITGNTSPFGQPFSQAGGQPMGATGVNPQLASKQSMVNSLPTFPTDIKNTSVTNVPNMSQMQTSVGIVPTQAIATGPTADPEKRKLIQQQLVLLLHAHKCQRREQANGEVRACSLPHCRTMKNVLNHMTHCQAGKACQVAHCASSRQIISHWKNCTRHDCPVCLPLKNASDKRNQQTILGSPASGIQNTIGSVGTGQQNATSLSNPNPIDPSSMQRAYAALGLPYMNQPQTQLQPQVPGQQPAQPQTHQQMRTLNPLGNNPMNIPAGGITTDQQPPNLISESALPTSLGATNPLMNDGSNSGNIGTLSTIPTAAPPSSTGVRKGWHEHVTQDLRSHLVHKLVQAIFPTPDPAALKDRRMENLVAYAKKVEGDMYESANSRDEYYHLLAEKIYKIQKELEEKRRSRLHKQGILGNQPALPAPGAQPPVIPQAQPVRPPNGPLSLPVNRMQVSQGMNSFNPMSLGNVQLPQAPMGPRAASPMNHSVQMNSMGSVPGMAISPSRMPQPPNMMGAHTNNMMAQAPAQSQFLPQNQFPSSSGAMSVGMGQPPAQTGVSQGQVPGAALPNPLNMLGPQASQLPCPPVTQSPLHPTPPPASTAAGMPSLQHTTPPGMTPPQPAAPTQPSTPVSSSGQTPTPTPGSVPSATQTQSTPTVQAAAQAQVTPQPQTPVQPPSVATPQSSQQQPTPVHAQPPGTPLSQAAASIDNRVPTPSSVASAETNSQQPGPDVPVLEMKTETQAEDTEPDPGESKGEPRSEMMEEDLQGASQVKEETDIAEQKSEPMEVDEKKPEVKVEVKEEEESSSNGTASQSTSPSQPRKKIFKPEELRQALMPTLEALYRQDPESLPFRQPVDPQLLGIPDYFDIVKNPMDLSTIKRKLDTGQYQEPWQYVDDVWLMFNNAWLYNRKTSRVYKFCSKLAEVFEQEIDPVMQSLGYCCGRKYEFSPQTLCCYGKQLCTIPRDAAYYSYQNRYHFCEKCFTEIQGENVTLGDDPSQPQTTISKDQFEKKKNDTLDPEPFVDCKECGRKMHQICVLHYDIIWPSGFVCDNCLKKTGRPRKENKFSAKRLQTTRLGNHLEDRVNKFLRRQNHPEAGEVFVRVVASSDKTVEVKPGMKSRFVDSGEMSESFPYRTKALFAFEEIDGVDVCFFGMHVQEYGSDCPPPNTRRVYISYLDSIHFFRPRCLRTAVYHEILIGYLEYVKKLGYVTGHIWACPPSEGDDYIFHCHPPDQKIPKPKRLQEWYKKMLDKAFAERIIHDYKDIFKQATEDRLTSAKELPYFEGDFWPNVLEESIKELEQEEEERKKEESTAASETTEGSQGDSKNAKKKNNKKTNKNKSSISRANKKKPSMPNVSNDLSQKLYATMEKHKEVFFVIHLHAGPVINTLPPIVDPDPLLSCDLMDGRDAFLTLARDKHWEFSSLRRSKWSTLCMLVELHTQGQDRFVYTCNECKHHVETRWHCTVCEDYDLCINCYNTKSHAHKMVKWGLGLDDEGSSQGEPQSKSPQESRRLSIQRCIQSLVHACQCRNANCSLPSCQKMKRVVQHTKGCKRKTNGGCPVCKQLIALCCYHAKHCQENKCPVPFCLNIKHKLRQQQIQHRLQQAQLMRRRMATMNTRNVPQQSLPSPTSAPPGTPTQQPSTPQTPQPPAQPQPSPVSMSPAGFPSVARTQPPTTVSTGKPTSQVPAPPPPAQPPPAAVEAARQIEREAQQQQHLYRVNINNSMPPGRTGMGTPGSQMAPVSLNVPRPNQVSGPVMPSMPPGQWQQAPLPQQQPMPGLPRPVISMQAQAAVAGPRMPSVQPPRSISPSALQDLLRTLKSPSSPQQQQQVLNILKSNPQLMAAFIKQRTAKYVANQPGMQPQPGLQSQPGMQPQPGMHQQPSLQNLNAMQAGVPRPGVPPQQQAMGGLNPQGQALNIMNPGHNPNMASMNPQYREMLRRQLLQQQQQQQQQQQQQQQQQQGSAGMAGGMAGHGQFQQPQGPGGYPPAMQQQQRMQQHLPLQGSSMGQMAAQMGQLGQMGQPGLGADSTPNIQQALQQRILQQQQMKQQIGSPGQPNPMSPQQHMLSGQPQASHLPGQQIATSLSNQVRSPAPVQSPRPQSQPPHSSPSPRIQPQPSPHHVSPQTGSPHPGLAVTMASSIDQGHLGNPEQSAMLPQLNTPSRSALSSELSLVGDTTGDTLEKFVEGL

[13] = target: T1, Bromodomain-containing protein 4; assay: Displacement of biotinylated ligand from BRD4 bromodomain-1 (unknown origin) by TR-FRET assay
CREB-binding protein [14] = target: T3, CREB-binding protein; assay: Displacement of biotinylated ligand from CBP (unknown origin) by TR-FRET assay
[15] = target: T2, CREB-binding protein/Histone acetyltransferase p300; assay: Inhibition of CBP/EP300 (unknown origin) assessed as reduction in MYC expression by cell based assay

SMILES | IC50 [1] | IC50 [2] | also measured
CCc1ccc(Nc2n[nH]c3c2CN(C(C)=O)CC3)cc1 | > 20 µM | 0.25 µM | 
CC(=O)N1CCc2c(c(Nc3cccc(-c4cnn(C)c4)c3)nn2CC2CC2)C1 | 4.2 µM |  | Drug metabolism [3]: Metabolite_Detected; Papp A→B at 3 h, 10 µM [4]: 18 ×10⁻⁶ cm/s; Drug metabolism [5]: Metabolite_Detected; Drug metabolism [6]: Metabolite_Detected; Drug metabolism [7]: Metabolite_Detected
CC(=O)N1CCc2c(c(Nc3cccc(-c4ccncc4)c3)nn2CC2CC2)C1 | 0.87 µM |  | Papp A→B at 3 h, 10 µM [4]: 20 ×10⁻⁶ cm/s
COCCNC(=O)c1cccc(Nc2nn(CC3CC3)c3c2CN(C(C)=O)CC3)c1 | > 20 µM |  | 
CC(=O)N1CCc2[nH]nc(Nc3cccc(C)c3)c2C1 | > 20 µM | 0.34 µM | 
CC(=O)N1CCc2c(c(Nc3cccc(-c4ccccn4)c3)nn2CC2CC2)C1 |  | 0.03 µM | Papp A→B at 3 h, 10 µM [4]: 15 ×10⁻⁶ cm/s; IC50 [8]: 0.56 µM
CC(=O)N1CCc2c(c(Nc3ccc(-c4cnn(C)c4)cc3)nn2C2COC2)C1 | 11 µM | 0.04 µM | IC50 [8]: 1.2 µM
CC(=O)N1CCc2[nH]nc(Nc3cccc(C(F)(F)F)c3)c2C1 | 18 µM | 0.1 µM | 
CC(=O)N1CCc2[nH]nc(Nc3ccc(C)cc3)c2C1 | > 20 µM | 0.3 µM | 
CC(=O)N1CCc2c(c(Nc3cccc(-c4ccccc4)c3)nn2CC2CC2)C1 | 4.6 µM |  | Papp A→B at 3 h, 10 µM [4]: 26 ×10⁻⁶ cm/s; IC50 [8]: 2.5 µM
CCCNC(=O)c1cccc(Nc2nn(CC3CC3)c3c2CN(C(C)=O)CC3)c1 | 5.8 µM | 0.03 µM | IC50 [8]: 1.3 µM
CC(=O)N1CCc2c(c(Nc3ccc(-c4cnn(C)c4)cc3)nn2CC2CC2)C1 | 6.4 µM |  | clearance [9]: 118 mL/min/kg; Drug metabolism [10]: Metabolite_Detected
CC(=O)N1CCc2c(c(Nc3cccc(C)c3)nn2C)C1 | > 20 µM |  | 
CC(=O)N1CCc2c(c(Nc3cccc(-c4cccnc4)c3)nn2CC2CC2)C1 | 4 µM |  | Papp A→B at 3 h, 10 µM [4]: 24 ×10⁻⁶ cm/s
COC(=O)c1ccc(Nc2n[nH]c3c2CN(C(C)=O)CC3)cc1 | > 20 µM | 0.14 µM | 
CCC(=O)N1CCc2[nH]nc(Nc3cccc(C)c3)c2C1 | > 20 µM | 1.4 µM | 
CC(=O)N1CCc2[nH]nc(Nc3ccc(F)cc3)c2C1 | > 20 µM | 0.91 µM | 
CC(=O)N1CCc2c(c(Nc3cccc(C)c3)nn2Cc2ccccn2)C1 | 7.3 µM |  | 
CC(=O)N1CCc2c(c(Nc3cccc(C(=O)NC(C)C)c3)nn2CC2CC2)C1 |  | 0.03 µM | Papp A→B at 3 h, 10 µM [4]: 2.4 ×10⁻⁶ cm/s; bioavailability [11]: 5%; IC50 [8]: 0.96 µM; clearance [9]: 43 mL/min/kg
CCCOc1ccc(CCc2nc3cc(-c4c(C)noc4C)ccc3n2CCN2CCOCC2)cc1 |  |  | IC50 (CREB-binding protein [12]): > 10 µM; IC50 [13]: 2.9 µM; IC50 (CREB-binding protein [14]): 0.19 µM; EC50 [15]: 6.6 µM
CC(=O)N1CCc2c(c(Nc3ccc(-c4cnn(C)c4)cc3)nn2C2CCOC2)C1 (single isomer, unassigned; 58) | 11 µM |  | 
CCNC(=O)c1cccc(Nc2nn(CC3CC3)c3c2CN(C(C)=O)CC3)c1 | 7.7 µM | 0.04 µM | IC50 [8]: 1.5 µM
CC(=O)N1CCc2c(c(Nc3cccc(-c4cnoc4)c3)nn2CC2CC2)C1 | 8.6 µM |  | 
Cc1cccc(Nc2n[nH]c3c2CN(C(=O)C(F)(F)F)CC3)c1 | > 20 µM | 4.3 µM | 

SMILES | IC50 [1] | IC50 [2] | also measured
CC(=O)N1CCc2c(c(Nc3cccc(-c4cn[nH]c4)c3)nn2CC2CC2)C1 | 4.6 µM |  | Papp A→B at 3 h, 10 µM [4]: 7.3 ×10⁻⁶ cm/s
CCC(=O)N1CCOc2c(cc(-c3ccc(OC)c(OC)c3)cc2OC[C@H]2CCCN(C)C2)C1 |  |  | IC50 (CREB-binding protein [12]): > 10 µM; IC50 (CREB-binding protein [14]): 0.44 µM; EC50 [15]: > 10 µM
CC(=O)N1CCc2[nH]nc(Nc3cccc(OC(F)F)c3)c2C1 | > 20 µM | 0.16 µM | 
CC(=O)N1CCc2[nH]nc(Nc3ccccc3C)c2C1 | > 20 µM | 1.2 µM | 
CC(=O)N1CCc2c(c(Nc3cccc(C)c3)nn2Cc2cccnc2)C1 | 5.6 µM |  | 
CCc1cccc(Nc2n[nH]c3c2CN(C(C)=O)CC3)c1 | > 20 µM | 0.19 µM | 
Cc1cccc(Nc2n[nH]c3c2CN(C(=O)C2CC2)CC3)c1 | > 20 µM | 4.1 µM | 
CC(=O)N1CCc2c(c(Nc3cccc(C)c3)nn2CCC2CC2)C1 | 9.8 µM | 0.18 µM | 
COCCn1nc(Nc2cccc(C)c2)c2c1CCN(C(C)=O)C2 | > 20 µM |  | 
CCCC(=O)N1CCc2[nH]nc(Nc3cccc(C)c3)c2C1 | > 20 µM | > 5 µM | 
CC(=O)N1CCc2c(c(Nc3cccc(-c4ccnn4C)c3)nn2CC2CC2)C1 | 3.7 µM |  | Papp A→B at 3 h, 10 µM [4]: 15 ×10⁻⁶ cm/s
COC(=O)c1cccc(Nc2n[nH]c3c2CN(C(C)=O)CC3)c1 | 18 µM | 0.11 µM | 
Cc1cccc(Nc2n[nH]c3c2CN(S(C)(=O)=O)CC3)c1 | > 20 µM | > 5 µM | 
CCCn1nc(Nc2cccc(C)c2)c2c1CCN(C(C)=O)C2 | 14 µM | 0.07 µM | 
CC(=O)N1CCc2c(c(Nc3ccc(-c4cnn(C)c4)cc3)nn2C2CCOC2)C1 (single isomer, unassigned; 57) | 8.5 µM |  | 
CC(=O)N1CCc2c(c(Nc3cccc(C)c3)nn2CCO)C1 | > 20 µM |  | 
CC(=O)N1CCc2c(c(Nc3cccc(C)c3)nn2CC2CC2)C1 | 13 µM |  | 
CC(=O)N1CCc2c(c(Nc3cccc(-c4ccn[nH]4)c3)nn2CC2CC2)C1 | 3.8 µM |  | Papp A→B at 3 h, 10 µM [4]: 6.3 ×10⁻⁶ cm/s
CC(=O)N1CCc2c(c(Nc3cccc(C)c3)nn2Cc2ccncc2)C1 | 5.9 µM |  | 
COc1ccc(CCc2nc3cc(-c4c(C)noc4C)ccc3n2C[C@H](C)N2CCOCC2)cc1Cl |  |  | IC50 [13]: 3.2 µM
CC(=O)N1CCc2[nH]nc(Nc3ccccc3F)c2C1 | > 20 µM | 1.4 µM | 
CC(=O)N1CCc2[nH]nc(Nc3cccc(F)c3)c2C1 | > 20 µM | 0.43 µM | 
COc1cccc(Nc2n[nH]c3c2CN(C(C)=O)CC3)c1 | > 20 µM | 0.34 µM | 

Source: ChEMBL document CHEMBL3864133, “Discovery of a Potent and Selective in Vivo Probe (GNE-272) for the Bromodomains of CBP/EP300” (J Med Chem, 2016)
